Results as given in ChEMBL document CHEMBL4680366, “Tumor-Targeted Bivalent Protein Degradation for Application in Cancer Therapy” (ACS Med Chem Lett, 2021).
The source made the active and inactive calls. No cut-off for these calls is given here.

Columns and labels:
[1] = target: Bromodomain-containing protein 4 (Homo sapiens, UniProt O60885); assay: Binding affinity to recombinant human BRD4 BD1 and BD2 expressed in Escherichia coli BL21 incubated for 2 hrs under shaking condition by HTRF assay
[2] = target: Heat shock protein HSP 90-alpha/Bromodomain-containing protein 4 (Homo sapiens) (UniProt P07900+O60885); assay: Protac activity at HSP90/BRD4 in human MV4-11 cells assessed as degradation of BRD4 at 40 to 1000 nM measured after 24 hrs by flow cytometry relative to control; type: cell-based; settings: dose 40-1000 nM
[3] = test system: MV4-11; assay: Antitumor activity at human MV4-11 cells xenografted in BALB/c mouse assessed as tumor growth inhibition at 25 to 100 mg/kg, ip administered for 3 to 4 weeks; type: functional, organism-based; settings: dose 25-100 mg/kg, time 3-4 weeks

Row | Structure (SMILES) | IC50 [1] [nM] | Activity [2] [%] | TGI [3]
1 | Cc1sc2c(c1C)C(c1ccc(Cl)cc1)=N[C@@H](CC(=O)NCC(=O)NCC1CCN(C(=O)C3CCN(Cc4ccc(-n5c(O)nnc5-c5cc(C(C)C)c(O)cc5O)cc4)CC3)CC1)c1nnc(C)n1-2 | < 100 | > 50 | –
2 | CCc1cc(-c2nnc(O)n2-c2ccc(CN3CCC(C(=O)N4CCC(CNC(=O)C[C@@H]5N=C(c6ccc(Cl)cc6)c6c(sc(C)c6C)-n6c(C)nnc65)C4)CC3)cc2)c(O)cc1O (stereo not given in full) | < 100 | – | –
3 | Cc1sc2c(c1C)C(c1ccc(Cl)cc1)=N[C@@H](CC(=O)N[C@@H](C)c1ccc(CN3CCC(Cc4ccc(-n5c(O)nnc5-c5cc(C(C)C)c(O)cc5O)cc4)CC3)cc1)c1nnc(C)n1-2 | < 100 | – | –
4 | Cc1sc2c(c1C)C(c1ccc(Cl)cc1)=N[C@@H](CC(=O)NCCOCCN1CCC(Cc3ccc(-n4c(O)nnc4-c4cc(C(C)C)c(O)cc4O)cc3)CC1)c1nnc(C)n1-2 | < 100 | – | –
5 | Cc1sc2c(c1C)C(c1ccc(Cl)cc1)=N[C@@H](CC(=O)N1CCC(CCN3CCC(Cc4ccc(-n5c(O)nnc5-c5cc(C(C)C)c(O)cc5O)cc4)CC3)CC1)c1nnc(C)n1-2 | < 100 | – | –

Second part, led by results:

Row | IC50 [1] [nM] | Activity [2] [%] | Structure (SMILES) | TGI [3]
6 | 100 | – | Cc1sc2c(c1C)C(c1ccc(Cl)cc1)=N[C@@H](CC(=O)N1CCC(CN3CCN(Cc4ccc(-n5c(O)nnc5-c5cc(C(C)C)c(O)cc5O)cc4)CC3)CC1)c1nnc(C)n1-2 [listing 1 of 3 here] | –
7 | 100 | > 50 | CCc1cc(-c2nnc(O)n2-c2ccc(CN3CCN(CC4CCN(C(=O)C[C@@H]5N=C(c6ccc(Cl)cc6)c6c(sc(C)c6C)-n6c(C)nnc65)CC4)CC3)cc2)c(O)cc1O | –
8 | 100 | – | CCc1cc(-c2nnc(C(=O)NCC(F)(F)F)n2-c2ccc(CN3CCN(CC4CCN(C(=O)C[C@@H]5N=C(c6ccc(Cl)cc6)c6c(sc(C)c6C)-n6c(C)nnc65)CC4)CC3)cc2)c(O)cc1O | Active
9 | 100 | – | Cc1sc2c(c1C)C(c1ccc(Cl)cc1)=N[C@@H](CC(=O)N1CCC(CN3CCN(Cc4ccc(-n5c(O)nnc5-c5cc(C(C)C)c(O)cc5O)cc4)CC3)CC1)c1nnc(C)n1-2 [listing 2 of 3 here] | –
10 | – | > 50 | Cc1sc2c(c1C)C(c1ccc(Cl)cc1)=N[C@@H](CC(=O)N1CCC(CN3CCN(Cc4ccc(-n5c(O)nnc5-c5cc(C(C)C)c(O)cc5O)cc4)CC3)CC1)c1nnc(C)n1-2 [listing 3 of 3 here] | Active
11 | < 100 | – | Cc1sc2c(c1C)C(c1ccc(Cl)cc1)=N[C@@H](CC(=O)N1CCC(CN3CCN(Cc4ccc(-n5c(O)nnc5-c5ccc(O)cc5O)cc4)CC3)CC1)c1nnc(C)n1-2 | –
